According to patent US9566312B2, “Cyclic peptides and use as medicines” (priority 2012, dated 2017):
Starred links: 1 amine or outer side, 2 acyl side, 3 side chain; linkers in the order of their positions; H or OH if unused. Non-standard residues stand in square brackets, D forms with d. Residues, ends and D or L forms follow the SMILES beside them. X74 = C[C@H](CCN1CCN2C(=O)OC[C@@H]2C1)[C@@H](C(=O)[*:2])N(C)[*:1]; X48 = C[C@@H](CN1CCN(S(C)(=O)=O)CC1)[C@@H](C(=O)[*:2])N(C)[*:1]; X70 = C[C@H](CCCOC(=O)N1CCN(C)CC1)[C@@H](C(=O)[*:2])N(C)[*:1]; X28 = CCN1CCN(C(=O)OC[C@H](C)[C@@H](C(=O)[*:2])N(C)[*:1])CC1; X38 = C[C@@H](CN1CCN2C(=O)OCC2C1)[C@@H](C(=O)[*:2])N(C)[*:1]; X62 = COCCN1CCN(CCC[C@@H](C)[C@@H](C(=O)[*:2])N(C)[*:1])CC1; X72 = C[C@H](CCN1CCN(C2CCC2)CC1)[C@@H](C(=O)[*:2])N(C)[*:1]; X67 = C[C@H](CCN1CCOC[C@@H]1C)[C@@H](C(=O)[*:2])N(C)[*:1]; X68 = C[C@H](CCN1CCC(C#N)CC1)[C@@H](C(=O)[*:2])N(C)[*:1]; X71 = COC1CN(CC[C@@H](C)[C@@H](C(=O)[*:2])N(C)[*:1])C1; X65 = C[C@H](CCN1CCCCC1)[C@@H](C(=O)[*:2])N(C)[*:1]; MeBmt = C/C=C/C[C@@H](C)[C@@H](O)[C@H](NC)C(=O)O; NMeL = CN[C@@H](CC(C)C)C(=O)O; NMeV = CN[C@H](C(=O)O)C(C)C; dNMeA = CN[C@H](C)C(=O)O; Abu = CC[C@H](N)C(=O)O

What was measured:
[1] = test system: peripheral blood mononuclear cells (PBMC); assay: Anti-proliferative or immunosuppressive activity, BrdU incorporation in PHA-stimulated PBMC; format: cell-based; settings: PHA 3 μg/ml, 60 hour compound treatment; read-out: EMV PBMC IC50
Method in brief: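 Fresh PBMCs from two donors, 30,000 per well in X-VIVO 15 medium, stimulated with 3 μg/ml PHA to drive T-cell proliferation. Proliferation measured as BrdU incorporation into DNA by BrdU ELISA.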

[2] = test system: genotype 1b subgenomic HCV replicon in Huh7.5 cells; format: cell-based, hepatitis C virus; settings: genotype 1b replicon, 72 h incubation; read-out: RPLN-1b IC50
Method in brief: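 Huh7.5 cells carrying genotype 1b subgenomic HCV replicon with renilla luciferase-neomycin reporter, in phenol red-free DMEM without G418. Luciferase measured after 72 h compound exposure relative to DMSO-treated cells; cytotoxicity (CC50) by Cell Titer-Glo.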

[3] = target: organic anion transporting polypeptide 1B1 (OATP1B1) (Homo sapiens (Human), UniProt Q9Y6L6); assay: OATP assay in CHO-OATP1B1 cells;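 note: inhibition of probe substrate uptake into the cells, ten minutes exposure, accumulated substrate read by fluorescence once cells were lysed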
Chain of organic anion transporting polypeptide 1B1 (OATP1B1) (Q9Y6L6 whole entry): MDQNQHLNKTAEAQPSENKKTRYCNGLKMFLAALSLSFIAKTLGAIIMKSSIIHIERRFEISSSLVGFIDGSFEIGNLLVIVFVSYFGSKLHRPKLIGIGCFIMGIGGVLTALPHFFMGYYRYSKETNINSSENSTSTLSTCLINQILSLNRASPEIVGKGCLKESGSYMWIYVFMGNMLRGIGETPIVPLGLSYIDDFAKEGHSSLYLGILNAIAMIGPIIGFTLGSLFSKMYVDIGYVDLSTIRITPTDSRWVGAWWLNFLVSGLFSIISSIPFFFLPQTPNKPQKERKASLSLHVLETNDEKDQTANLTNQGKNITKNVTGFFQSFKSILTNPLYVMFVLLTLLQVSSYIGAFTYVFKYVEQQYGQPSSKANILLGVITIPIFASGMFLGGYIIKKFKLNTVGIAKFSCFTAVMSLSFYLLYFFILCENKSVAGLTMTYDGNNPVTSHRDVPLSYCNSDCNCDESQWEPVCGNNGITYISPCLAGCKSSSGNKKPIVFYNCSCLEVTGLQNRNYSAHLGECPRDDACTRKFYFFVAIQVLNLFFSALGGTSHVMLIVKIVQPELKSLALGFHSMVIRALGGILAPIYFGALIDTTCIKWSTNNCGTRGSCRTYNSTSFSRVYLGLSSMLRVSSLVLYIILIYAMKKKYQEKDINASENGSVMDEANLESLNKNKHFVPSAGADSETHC

[4] = target: cyclophilin B (CypB) (Homo sapiens (Human), UniProt P23284); assay: Inhibitor binding to cyclophilin proteins by SPR, CypB; design: unit not given here; settings: 1:1 binding model
Chain of cyclophilin B (CypB) (P23284 34-216): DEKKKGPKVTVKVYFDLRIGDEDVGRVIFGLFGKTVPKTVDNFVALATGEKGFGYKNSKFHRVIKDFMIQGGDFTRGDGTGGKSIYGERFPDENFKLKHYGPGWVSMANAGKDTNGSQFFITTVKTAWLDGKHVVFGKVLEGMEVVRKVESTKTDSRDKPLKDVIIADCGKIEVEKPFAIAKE
Method in brief: (§1)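 Mono-biotinylated avi-tagged cyclophilins captured on a Biotin CAPture chip. Single-cycle kinetics at 50 μL/min, 1 min contacts, 10 min final dissociation, in 10 mM HEPES pH 7.4, 150 mM NaCl, 0.05% P20, 3% DMSO. kon, koff and KD from a 1:1 binding model.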

[5] = target: cyclophilin A (CypA) (Homo sapiens (Human), UniProt P62937); assay: Inhibitor binding to cyclophilin proteins by SPR, CypA; design: unit not given here; settings: 1:1 binding model;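 note: Single-cycle kinetics on a Biacore T200, compound injected at several concentrations for 1 min each at 50 µL/min, then 10 min dissociation, in HEPES pH 7.4 buffer with 3% DMSO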
Chain of cyclophilin A (CypA) (P62937 whole entry): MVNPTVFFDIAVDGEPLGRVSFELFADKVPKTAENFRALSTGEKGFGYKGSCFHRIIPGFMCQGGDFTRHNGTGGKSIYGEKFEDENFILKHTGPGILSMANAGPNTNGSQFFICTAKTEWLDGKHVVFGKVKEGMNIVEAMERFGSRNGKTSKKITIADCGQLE

[6] = target: CypF (Homo sapiens (Human), UniProt P30405); assay: Inhibitor binding to cyclophilin proteins by SPR, CypF; settings: 1:1 binding model
Chain of CypF (P30405 30-207): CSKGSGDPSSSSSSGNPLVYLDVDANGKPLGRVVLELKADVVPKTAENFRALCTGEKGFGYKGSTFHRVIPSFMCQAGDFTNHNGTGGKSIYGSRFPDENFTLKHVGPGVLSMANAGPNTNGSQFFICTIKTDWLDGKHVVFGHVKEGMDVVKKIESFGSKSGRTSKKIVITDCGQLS
Method in brief: as §1

SMILES | IC50 [1] [nM] | IC50 [2] [nM] | IC50 [3] [nM] | CypB Kd [4] | CypA Kd [5] | CypF Kd [6] [nM]
C/C=C/C[C@@H](C)[C@@H](O)[C@H]1C(=O)N[C@@H](CC)C(=O)N(C)[C@H](C)C(=O)N(C)[C@@H]([C@@H](C)CN2CCN(S(C)(=O)=O)CC2)C(=O)N[C@@H](C(C)C)C(=O)N(C)[C@@H](CC(C)C)C(=O)N[C@@H](C)C(=O)N[C@H](C)C(=O)N(C)[C@@H](CC(C)C)C(=O)N(C)[C@@H](CC(C)C)C(=O)N(C)[C@@H](C(C)C)C(=O)N1C [Compound 2.17.9, 3-[D-Ala]-4-[(2S,3S)-3-methyl-2-(methylamino)-4-(4-(methylsulfonyl)piperazin-1-yl)butanoyl]-cyclosporin] (cyclo(A[dA][NMeL][NMeL][NMeV][MeBmt][Abu][dNMeA][X48]V[NMeL])) | 31900 | 23 | 400 | 0.6 | 0.9 | 0.5
C/C=C/C[C@@H](C)[C@@H](O)[C@H]1C(=O)N[C@@H](CC)C(=O)N(C)[C@H](C)C(=O)N(C)[C@@H]([C@@H](C)CN2CCN3C(=O)OCC3C2)C(=O)N[C@@H](C(C)C)C(=O)N(C)[C@@H](CC(C)C)C(=O)N[C@@H](C)C(=O)N[C@H](C)C(=O)N(C)[C@@H](CC(C)C)C(=O)N(C)[C@@H](CC(C)C)C(=O)N(C)[C@@H](C(C)C)C(=O)N1C (stereo partly drawn) [Compound 2.17.10, 3-[D-Ala]-4-[(2S,3S)-3-methyl-2-(methylamino)-4-((S)-3-oxotetrahydro-1H-oxazolo[3,4-a]pyrazin-7(3H)-yl)butanoyl]-cyclosporin] (cyclo(A[dA][NMeL][NMeL][NMeV][MeBmt][Abu][dNMeA][X38]V[NMeL])) | 15000 | 31 | 1400 | 0.5 | 0.6 | 0.4
C/C=C/C[C@@H](C)[C@@H](O)[C@H]1C(=O)N[C@@H](CC)C(=O)N(C)[C@H](C)C(=O)N(C)[C@@H]([C@@H](C)COC(=O)N2CCN(CC)CC2)C(=O)N[C@@H](C(C)C)C(=O)N(C)[C@@H](CC(C)C)C(=O)N[C@@H](C)C(=O)N[C@H](C)C(=O)N(C)[C@@H](CC(C)C)C(=O)N(C)[C@@H](CC(C)C)C(=O)N(C)[C@@H](C(C)C)C(=O)N1C [Compound 2.17.14, 3-[D-Ala]-4-[(2S,3R)-4-((4-ethylpiperazine-1-carbonyl)oxy)-3-methyl-2-(methylamino)butanoyl]-cyclosporin] (cyclo(A[dA][NMeL][NMeL][NMeV][MeBmt][Abu][dNMeA][X28]V[NMeL])) | 8100 | 57 | 2200 | 0.4 | 0.5 | 0.5
C/C=C/C[C@@H](C)[C@@H](O)[C@H]1C(=O)N[C@@H](CC)C(=O)N(C)[C@H](C)C(=O)N(C)[C@@H]([C@H](C)CCN2CCC(C#N)CC2)C(=O)N[C@@H](C(C)C)C(=O)N(C)[C@@H](CC(C)C)C(=O)N[C@@H](C)C(=O)N[C@H](C)C(=O)N(C)[C@@H](CC(C)C)C(=O)N(C)[C@@H](CC(C)C)C(=O)N(C)[C@@H](C(C)C)C(=O)N1C [Compound 2.18.2, 3-[D-Ala]-4-[(2S,3R)-5-(4-cyanopiperidin-1-yl)-3-methyl-2-(methylamino)pentanoyl]-cyclosporin] (cyclo(A[dA][NMeL][NMeL][NMeV][MeBmt][Abu][dNMeA][X68]V[NMeL])) | 7300 | 58 | 2400 | 0.7 | 1.1 | 0.6
C/C=C/C[C@@H](C)[C@@H](O)[C@H]1C(=O)N[C@@H](CC)C(=O)N(C)[C@H](C)C(=O)N(C)[C@@H]([C@H](C)CCN2CCOC[C@@H]2C)C(=O)N[C@@H](C(C)C)C(=O)N(C)[C@@H](CC(C)C)C(=O)N[C@@H](C)C(=O)N[C@H](C)C(=O)N(C)[C@@H](CC(C)C)C(=O)N(C)[C@@H](CC(C)C)C(=O)N(C)[C@@H](C(C)C)C(=O)N1C [Compound 2.18.4] (cyclo(A[dA][NMeL][NMeL][NMeV][MeBmt][Abu][dNMeA][X67]V[NMeL])) | 10600 | 44 | 1700 | 0.7 | 1.2 | 0.7
C/C=C/C[C@@H](C)[C@@H](O)[C@H]1C(=O)N[C@@H](CC)C(=O)N(C)[C@H](C)C(=O)N(C)[C@@H]([C@H](C)CCN2CC(OC)C2)C(=O)N[C@@H](C(C)C)C(=O)N(C)[C@@H](CC(C)C)C(=O)N[C@@H](C)C(=O)N[C@H](C)C(=O)N(C)[C@@H](CC(C)C)C(=O)N(C)[C@@H](CC(C)C)C(=O)N(C)[C@@H](C(C)C)C(=O)N1C [Compound 2.18.5, 3-[D-Ala]-4-[(2S,3R)-5-(3-methoxyazetidin-1-yl)-3-methyl-2-(methylamino)pentanoyl]-cyclosporin] (cyclo(A[dA][NMeL][NMeL][NMeV][MeBmt][Abu][dNMeA][X71]V[NMeL])) | 8100 | 78 | 1400 | 0.6 | 0.9 | 0.5
C/C=C/C[C@@H](C)[C@@H](O)[C@H]1C(=O)N[C@@H](CC)C(=O)N(C)[C@H](C)C(=O)N(C)[C@@H]([C@H](C)CCN2CCCCC2)C(=O)N[C@@H](C(C)C)C(=O)N(C)[C@@H](CC(C)C)C(=O)N[C@@H](C)C(=O)N[C@H](C)C(=O)N(C)[C@@H](CC(C)C)C(=O)N(C)[C@@H](CC(C)C)C(=O)N(C)[C@@H](C(C)C)C(=O)N1C [Compound 2.18.8, 3-[D-Ala]-4-[(2S,3R)-3-methyl-2-(methylamino)-5-(piperidin-1-yl)pentanoyl]-cyclosporin] (cyclo(A[dA][NMeL][NMeL][NMeV][MeBmt][Abu][dNMeA][X65]V[NMeL])) | 1000 | 45 | 2300 | 0.7 | 0.9 | 0.5
C/C=C/C[C@@H](C)[C@@H](O)[C@H]1C(=O)N[C@@H](CC)C(=O)N(C)[C@H](C)C(=O)N(C)[C@@H]([C@H](C)CCN2CCN3C(=O)OC[C@@H]3C2)C(=O)N[C@@H](C(C)C)C(=O)N(C)[C@@H](CC(C)C)C(=O)N[C@@H](C)C(=O)N[C@H](C)C(=O)N(C)[C@@H](CC(C)C)C(=O)N(C)[C@@H](CC(C)C)C(=O)N(C)[C@@H](C(C)C)C(=O)N1C [Compound 2.18.9, 3-[D-Ala]-4-[(2S,3R)-3-methyl-2-(methylamino)-5-((S)-3-oxotetrahydro-1H-oxazolo[3,4-a]pyrazin-7(3H)-yl)pentanoyl]-cyclosporin] (cyclo(A[dA][NMeL][NMeL][NMeV][MeBmt][Abu][dNMeA][X74]V[NMeL])) | 9200 | 170 | 2800 | 2.7 | 1.8 | 1
C/C=C/C[C@@H](C)[C@@H](O)[C@H]1C(=O)N[C@@H](CC)C(=O)N(C)[C@H](C)C(=O)N(C)[C@@H]([C@H](C)CCN2CCN(C3CCC3)CC2)C(=O)N[C@@H](C(C)C)C(=O)N(C)[C@@H](CC(C)C)C(=O)N[C@@H](C)C(=O)N[C@H](C)C(=O)N(C)[C@@H](CC(C)C)C(=O)N(C)[C@@H](CC(C)C)C(=O)N(C)[C@@H](C(C)C)C(=O)N1C [Compound 2.18.10, 3-[D-Ala]-4-[(2S,3R)-5-(4-cyclobutylpiperazin-1-yl)-3-methyl-2-(methylamino)pentanoyl]-cyclosporin] (cyclo(A[dA][NMeL][NMeL][NMeV][MeBmt][Abu][dNMeA][X72]V[NMeL])) | 1600 | 96 | 2100 | 1.1 | 1.5 | 0.7
C/C=C/C[C@@H](C)[C@@H](O)[C@H]1C(=O)N[C@@H](CC)C(=O)N(C)[C@H](C)C(=O)N(C)[C@@H]([C@H](C)CCCN2CCN(CCOC)CC2)C(=O)N[C@@H](C(C)C)C(=O)N(C)[C@@H](CC(C)C)C(=O)N[C@@H](C)C(=O)N[C@H](C)C(=O)N(C)[C@@H](CC(C)C)C(=O)N(C)[C@@H](CC(C)C)C(=O)N(C)[C@@H](C(C)C)C(=O)N1C [Compound 2.19.6, 3-[D-Ala]-4-[(2S,3R)-6-(4-(2-methoxyethyl)piperazin-1-yl)-3-methyl-2-(methylamino)hexanoyl]-cyclosporin] (cyclo(A[dA][NMeL][NMeL][NMeV][MeBmt][Abu][dNMeA][X62]V[NMeL])) | 1600 | 110 | 2200 | 0.7 | 0.7 | 0.5
C/C=C/C[C@@H](C)[C@@H](O)[C@H]1C(=O)N[C@@H](CC)C(=O)N(C)[C@H](C)C(=O)N(C)[C@@H]([C@H](C)CCCOC(=O)N2CCN(C)CC2)C(=O)N[C@@H](C(C)C)C(=O)N(C)[C@@H](CC(C)C)C(=O)N[C@@H](C)C(=O)N[C@H](C)C(=O)N(C)[C@@H](CC(C)C)C(=O)N(C)[C@@H](CC(C)C)C(=O)N(C)[C@@H](C(C)C)C(=O)N1C [Compound 2.19.7, 3-[D-Ala]-4-[(2S,3R)-3-methyl-2-(methylamino)-6-((4-methylpiperazine-1-carbonyl)oxy)hexanoyl]-cyclosporin] (cyclo(A[dA][NMeL][NMeL][NMeV][MeBmt][Abu][dNMeA][X70]V[NMeL])) | 15900 | 11 | 2900 | 0.7 | 1.1 | 0.7
